In brackets after ≈: the same amount, converted by molar mass.
Key:
[1] = tested on: Human immunodeficiency virus 1; test: Inhibition of HIV-1 replication in infected MT-4 human T-lymphoid cells.; format: functional, organism-based; details: Human immunodeficiency virus 1, T-lymphoid
[2] = target: Human immunodeficiency virus type 1 protease (Human immunodeficiency virus 1) (UniProt Q72874); test: Inhibitory activity against HIV-1 protease enzyme
[3] = Aqueous solubility in phosphate buffer of pH 7.4; format: physicochemical

SMILES	IC50 [1] [nM]	IC95 [2] [nM]	solubility [3] [µg/mL]
CC(C)(C)NC(=O)[C@@H]1C[C@@H]2CCCC[C@@H]2CN1C[C@@H](O)[C@H](Cc1ccccc1)NC(=O)O[C@H]1CO[C@H]2CCC[C@H]21	190		
COC[C@@H]1SCC[C@@H]1OC(=O)N[C@@H](Cc1ccccc1)[C@H](O)CN1C[C@H]2CCCC[C@H]2C[C@H]1C(=O)NC(C)(C)C	19.7		
CC(C)(C)NC(=O)[C@@H]1C[C@@H]2CCCC[C@@H]2CN1C[C@@H](O)[C@H](Cc1ccccc1)NC(=O)O[C@H]1CO[C@H]2OCCC[C@H]21	4.2	100	
CC(C)(C)NC(=O)[C@@H]1C[C@@H]2CCCC[C@@H]2CN1C[C@@H](O)[C@H](Cc1ccccc1)NC(=O)O[C@]12CCO[C@H]1OCC2	410	> 200	
CC(C)(C)NC(=O)[C@@H]1C[C@@H]2CCCC[C@@H]2CN1C[C@@H](O)[C@H](Cc1ccccc1)NC(=O)O[C@H]1CO[C@@]2(C)OCC[C@@H]12	18.1	> 200	
CC(C)(C)NC(=O)[C@@H]1C[C@@H]2CCCC[C@@H]2CN1C[C@@H](O)[C@H](Cc1ccccc1)NC(=O)O[C@H]1CCOC1	132		150 (≈ 291 µM)
CC(C)(C)NC(=O)[C@@H]1C[C@@H]2CCCC[C@@H]2CN1C[C@@H](O)[C@H](Cc1ccccc1)NC(=O)O[C@@H]1CO[C@@H]2CCO[C@@H]21	> 3000	> 200	
COC[C@H]1[C@@H](OC(=O)N[C@@H](Cc2ccccc2)[C@H](O)CN2C[C@H]3CCCC[C@H]3C[C@H]2C(=O)NC(C)(C)C)CCS1(=O)=O	23.8		
CC(C)(C)NC(=O)[C@@H]1C[C@@H]2CCCC[C@@H]2CN1C[C@@H](O)[C@H](Cc1ccccc1)NC(=O)O[C@H]1CO[C@H]2COC[C@H]21	1700		
CC(C)(C)NC(=O)[C@@H]1C[C@@H]2CCCC[C@@H]2CN1C[C@@H](O)[C@H](Cc1ccccc1)NC(=O)O[C@H]1CCSC1	132		
CC(C)(C)NC(=O)[C@@H]1C[C@@H]2CCCC[C@@H]2CN1C[C@@H](O)[C@H](Cc1ccccc1)NC(=O)O[C@@H]1CCOC1	694	> 800	
C[C@@H]1C[C@@H]2[C@@H](OC[C@@H]2OC(=O)N[C@@H](Cc2ccccc2)[C@H](O)CN2C[C@H]3CCCC[C@H]3C[C@H]2C(=O)NC(C)(C)C)O1	4.1	200	
CC(C)(C)NC(=O)[C@@H]1C[C@@H]2CCCC[C@@H]2CN1C[C@@H](O)[C@H](Cc1ccccc1)NC(=O)O[C@H]1CC[C@H]2OCC[C@@H]12	17		
CC(C)(C)NC(=O)[C@@H]1C[C@@H]2CCCC[C@@H]2CN1C[C@@H](O)[C@H](Cc1ccccc1)NC(=O)O[C@@H]1CO[C@@H]2OCC[C@@H]21	6.4		130 (≈ 233 µM)
CC(C)(C)NC(=O)[C@@H]1C[C@@H]2CCCC[C@@H]2CN1C[C@@H](O)[C@H](Cc1ccccc1)NC(=O)O[C@@H]1CO[C@@H]2OCCC[C@@H]21	1.2	50	107 (≈ 187 µM)
CC(C)(C)NC(=O)[C@@H]1C[C@@H]2CCCC[C@@H]2CN1C[C@@H](O)[C@H](Cc1ccccc1)NC(=O)O[C@H]1CO[C@H]2OCC[C@H]21	1.8		235 (≈ 421 µM)
CC(C)(C)NC(=O)[C@@H]1C[C@@H]2CCCC[C@@H]2CN1C[C@@H](O)[C@H](Cc1ccccc1)NC(=O)O[C@H]1CCS(=O)(=O)C1	76	364	
CC(C)(C)NC(=O)[C@@H]1C[C@@H]2CCCC[C@@H]2CN1C[C@@H](O)[C@H](Cc1ccccc1)NC(=O)[C@H](CC(N)=O)NC(=O)c1ccc2ccccc2n1 [SAQUINAVIR]			10 (≈ 14.9 µM)
C[C@H]1C[C@@H]2[C@@H](OC[C@@H]2OC(=O)N[C@@H](Cc2ccccc2)[C@H](O)CN2C[C@H]3CCCC[C@H]3C[C@H]2C(=O)NC(C)(C)C)O1	27.1	200	

Source: ChEMBL document CHEMBL1129277, “Nonpeptidal P2 ligands for HIV protease inhibitors: structure-based design, synthesis, and biological evaluation” (J Med Chem, 1996)
